Results as given in patent US8536196B2, “Substituted 1,3-dioxanes useful as PPAR modulators” (Evolva SA, priority 2007, dated 2013).

Key:
[1] = target: T1, mPPARdeltaLBD (Mus musculus, UniProt P35396); experiment: PPARdelta transactivation assay; format: cell-based
T1 construct: expressed in transfected cells
T1 sequence (P35396 210-438 limits assumed): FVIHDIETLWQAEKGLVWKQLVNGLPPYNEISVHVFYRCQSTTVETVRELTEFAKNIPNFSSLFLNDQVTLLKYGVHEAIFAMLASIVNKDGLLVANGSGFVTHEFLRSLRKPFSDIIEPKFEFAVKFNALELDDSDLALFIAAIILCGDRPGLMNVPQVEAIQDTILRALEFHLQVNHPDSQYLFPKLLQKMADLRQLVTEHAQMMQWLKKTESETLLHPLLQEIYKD
Experimental: This example describes a transactivation assay for determining PPARdelta modulating activity.
DPD and other ligands are tested for their ability to transactivate PPARdelta essentially as described in Example 22.

[2] = target: T2, mPPARalphaLBD (Mus musculus, UniProt P23204); experiment: PPARalpha transactivation assay; format: cell-based
T2 construct: expressed in transfected cells
T2 sequence (P23204 239-466 limits assumed): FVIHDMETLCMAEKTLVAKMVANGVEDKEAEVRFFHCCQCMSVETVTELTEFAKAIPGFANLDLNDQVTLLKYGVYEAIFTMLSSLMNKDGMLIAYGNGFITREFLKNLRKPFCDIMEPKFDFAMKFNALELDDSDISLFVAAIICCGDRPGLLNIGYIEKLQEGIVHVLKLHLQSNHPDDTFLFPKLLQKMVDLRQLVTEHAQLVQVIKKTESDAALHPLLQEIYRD
Experimental: This example describes a transactivation assay for determining PPARalpha modulating activity.
DPD and other ligands are tested for their ability to transactivate PPARalpha essentially as described in Example 22.

[3] = tested on: MEFs / 3T3-L1; experiment: Adipocyte differentiation induction assay (Oil Red O staining); format: cell-based, mouse
Experimental: This example describes an assay for determining adipocyte differention. Compounds are tested to see whether they induce adipocyte differentiation and also to see whether they inhibit adipocyte differention.
MEFs were grown in AmnioMax basal medium (Gibco) supplemented with 7.5% Amniomax supplement C-100 (Gibco), 7.5% Fetal Bovine Serum (FBS), 2 mM Glutamine, 62.5 μg/ml penicillin and 100 μg/ml Streptomycin (growth medium). At confluence, MEFs were induced to differentiation in growth medium with the addition of 1 μM dexamethasone (Sigma) 0.5 mM isobutylmethylxanthine (Sigma), 5 μg/ml insulin (Sigma) and 10 μM test compound dissolved in DMSO or DMSO alone. Medium was subsequently renewed every 48 hrs with growth media supplemented with 5 μg/ml Insulin and ligand or DMSO.
Briefly, to test compounds as inducers of adipocyte differentiation, 3T3-L1 are grown to confluence in DMEM with 10% Calf serum (CS), typically in 24 well dishes. At 2 days post confluence (day 0), cells are induced to differentiate with DMEM supplemented with 10% fetal bovine serum (FBS), 1 μM dexamethasone and the test compound (01, 1 and 10 μM). BRL49653 (1.0 μM dissolved in 100% DMSO) is used as a positive control. After 48 h, the cells are re-fed with DMEM containing 10% FBS supplemented with the test compound or the positive control. From day 4, cells are grown in DMEM with 10% FBS and are changed every second day until day 8. At day 8, cells are stained with Oil Red O as described below.
Cells cultured as described above are used for Oil Red staining. Dishes are washed in PBS and cells were fixed in 3.7% paraformaldehyde for 1 h and stained with oil red O as described in (Hansen et al 1999). Oil red O solution stock solution is prepared by dissolving 0.5 g of Oil Red O (Sigma) in 100 mL of isopropanol. Oil re 0 working solution is prepared by diluting a stock solution with water (6:4) followed by filtration.
Table II summarizes results obtained with different analogs of DPD (SN1), “0” representing similar results to DPD, “−1” representing even less adipocyte differentiation, “+1” representing more adipocyte differentiation (both relative to DPD) and “−” meaning not assayed.

[4] = tested on: human pre-adipocytes; experiment: Adipocyte differentiation assay using human pre-adipocytes; format: cell-based
[5] = tested on: human cervical carcinoma cell line (HeLa); experiment: Inhibition of cancer cell proliferation (flow cytometry); format: cell-based; conditions: 48 hours of treatment, read-out: inhibition of proliferation of HeLa cells
Experimental: (§1) A human cervical carcinoma cell line (HeLa) engineered to stably express a recombinant biosensor reporter activity and a non-cancer cell line, HaCaT (Boukamp et al., 1988, J. Cell Biol 106(3):761-771) was used with a Caspa Tag kit (commercially available eg from Chemicon). The detection of proliferation was carried out using a high content screening automated flow cytometer.
(§2) DPD (Substance 1) was diluted to 20 μM in cell culture medium without serum adjusted to 1% DMSO. Detection of cellular events was performed in duplicate in 96-well plates after 48 hours of treatment in the FL2 (dilution of a proliferative marker) channels of a HTS flow cytometer (FACS Calibur HTS, Becton Dickenson). At day 1, cells were seeded in 96 well plates. Cells were treated with DPD and the appropriate controls on day 2 and analysis was carried out on day 4.

[6] = tested on: HaCaT; experiment: Proliferation of non-cancer cell line (flow cytometry); format: cell-based; conditions: 20 μM, 48 hours of treatment
Experimental: as §1, §2

`O=C(O)CC/C=C\CC1COC(c2ccccc2Cl)OC1c1ccccc1O` (racemic) [SN1, (Z)-6-(-2-(2-chlorophenyl)-4-(2-hydroxyphenyl)-1,3-dioxan-5-yl)hex-4-enoic acid] was tested, and the “increase in PPARdelta transactivation” value [1] was “no or little increase in transactivation”, the “increase in PPARalpha transactivation” value [2] was “no transactivation” and the “red staining (Oil Red O) in the induction assay” value [3] was “very little red staining”. For the same compound, the “red staining (Oil Red O), human pre-adipocytes” value [4] was “very little red staining, similar to DMSO”, the inhibition at 20 µM [5] was 90% and the “effect on non-cancer cell line HaCaT” value [6] was “no effect”.
